Data reported in patent US7850948B2, “Radiohalogenated benzamide derivatives and their use in tumor diagnosis and tumor therapy” (Bayer Schering Pharma AG, priority 2004, dated 2010).

Key:
[1] = tested on: B16/F1 tumor-bearing C57BL6 mice; test: Tissue concentration of radioiodinated benzamides in the C57BL6-B16/F1 mouse model (organ distribution and tumor accumulation); type: in vivo; conditions: for Blood tissue concentration / Liver tissue concentration / Tumor tissue concentration: n = 3
Description: (§1) After synthesis and purification, the compounds according to the invention are dissolved in a physiologically compatible medium and kept ready for injection. Organ distribution and tumor accumulation experiments were performed in B16/F1 tumor-bearing C57BL6 mice, and SK-Mel-3 tumor-bearing NMRI nude mice (15-22 g).
(§2) Murine B16/F1 and human SK-Mel-3 cells were ordered from ATCC. B16/F1 cells (0.5×10^6) are washed in buffer (preferably phosphate buffer), suspended and inoculated subcutaneously into C57BL6 mice, 100 μl, in the right rear flanks. Sk-Mel-3 cells (5×10^6) are washed in buffer and then inoculated subcutaneously into NMRI mice in Matrigel® (100 μl) in the right side of the trunk. After about 8-10 days, the animals develop palpable tumors with a surface area of about 30 mm^2. The distribution studies are performed after intravenous caudal vein administration of 3.7-5.5 MBq of the substances according to the invention in 50-100 μl of volume. At certain times after administration, the animals are sacrificed, organs and tumors are removed, optionally dabbed dry, weighed and measured for radioactive content (γ measurement) in a calibrator with the corresponding isotope standard. The results are depicted as % of the injected dose (ID)/g of tissue (Table 1).

[2] = Lipophilicity; type: physicochemical; conditions: in words
[3] = tested on: thyroid gland; test: Thyroid gland accumulation as indication of dehalogenation in vivo
Excerpt: Another drawback of the most similar compounds of the prior art is that the compounds of Eisenhut et al. dehalogenate more quickly in the body than the compounds according to the invention.
The thyroid gland accumulation of BA40 and BA42, an indication of dehalogenation in vivo, is increased by a factor of 10-15 compared to the compounds according to the invention.

[4] = tested on: SK-Mel-3 tumor-bearing NMRI nude mice; test: Tumor accumulation in the NMRI-SK-Me13 human xenograft mouse model; type: in vivo; conditions: after 96 hours
Description: as §1, §2

[5] = 1 hour after intravenous administration
[6] = 5 hours after intravenous administration
[7] = 24 hours after intravenous administration
[8] = 6 h after intravenous administration

Row | Compound | Blood tissue concentration [1, 5] | Liver tissue concentration [1, 5] | Tumor tissue concentration [1, 5] | Blood tissue concentration [1, 6] | Liver tissue concentration [1, 6] | Tumor tissue concentration [1, 6] | Blood tissue concentration [1, 7] | Liver tissue concentration [1, 7] | Tumor tissue concentration [1, 7] | Liver concentration compared with BA42 ([1]; after 6 and 24 hours, in words) | Blood accumulation compared with the closest prior art (compound of Eisenhut et al. with NH-Ac) ([1]; in words) | Retardation in the melanoma tissue ([1]; in words) | Stability of the bonded radioisotope I-131 (dehalogenation in vivo) [3] | Blood tissue concentration [1, 8] | Liver tissue concentration [1, 8] | Tumor tissue concentration [1, 8] | further results
1 | CCN(CC)CCNC(=O)c1cc(I)c(NC(=O)c2ccccc2)cc1OC [BA91] | 1.06 % Injected Dose (ID)/g of Tissue | 12.68 % Injected Dose (ID)/g of Tissue | 9.68 % Injected Dose (ID)/g of Tissue |  |  |  | 0.22 % Injected Dose (ID)/g of Tissue | 0.76 % Injected Dose (ID)/g of Tissue | 13.83 % Injected Dose (ID)/g of Tissue | considerably lower | considerably less |  | more stable | 0.97 % Injected Dose (ID)/g of Tissue | 3.63 % Injected Dose (ID)/g of Tissue | 16.72 % Injected Dose (ID)/g of Tissue | 
2 | CCN(CC)CCNC(=O)c1cc(I)c(NC(=O)c2ccc(OC)cc2)cc1OC [BA95] | 1.26 % Injected Dose (ID)/g of Tissue | 16.35 % Injected Dose (ID)/g of Tissue | 17.45 % Injected Dose (ID)/g of Tissue | 0.76 % Injected Dose (ID)/g of Tissue | 8.54 % Injected Dose (ID)/g of Tissue | 14.83 % Injected Dose (ID)/g of Tissue | 0.07 % Injected Dose (ID)/g of Tissue | 0.75 % Injected Dose (ID)/g of Tissue | 29.69 % Injected Dose (ID)/g of Tissue | considerably lower | considerably less | extended retardation | more stable |  |  |  | 

Continued, in another order:

Row | Blood tissue concentration [1, 5] | Liver tissue concentration [1, 5] | Tumor tissue concentration [1, 5] | Blood tissue concentration [1, 6] | Liver tissue concentration [1, 6] | Tumor tissue concentration [1, 6] | Blood tissue concentration [1, 7] | Liver tissue concentration [1, 7] | Tumor tissue concentration [1, 7] | Liver concentration compared with BA42 ([1]; after 6 and 24 hours, in words) | Blood accumulation compared with the closest prior art (compound of Eisenhut et al. with NH-Ac) ([1]; in words) | Retardation in the melanoma tissue ([1]; in words) | Stability of the bonded radioisotope I-131 (dehalogenation in vivo) [3] | Blood tissue concentration [1, 8] | Liver tissue concentration [1, 8] | Tumor tissue concentration [1, 8] | Compound | further results
3 | 1.46 % Injected Dose (ID)/g of Tissue | 19.11 % Injected Dose (ID)/g of Tissue | 14.83 % Injected Dose (ID)/g of Tissue | 0.69 % Injected Dose (ID)/g of Tissue | 6.53 % Injected Dose (ID)/g of Tissue | 22.69 % Injected Dose (ID)/g of Tissue | 0.05 % Injected Dose (ID)/g of Tissue | 0.49 % Injected Dose (ID)/g of Tissue | 18.82 % Injected Dose (ID)/g of Tissue | considerably lower | considerably less | extended retardation | more stable |  |  |  | CCN(CC)CCNC(=O)c1cc(I)c(NC(=O)c2ccc3c(c2)OCO3)cc1OC [BA52, Benzo[1,3]dioxole-5-carboxylic acid [4-(2-diethylamino-ethylcarbamoyl)-2-iodo-5-methoxy-phenyl]-amide] | Blood accumulation compared with BA42 ([1]; after 6 and 24 hours, in words): considerably lower; Retention in the tumor compared with BA40 and BA42 ([1]; in words): considerably longer; Tumor concentration compared with BA40 and BA42 ([1]; in words): comparable; Lipophilicity compared with the prior art compounds [2]: higher lipophilicity; Accumulation in the tumor [4]: at least 13 % of the injected dose per gram tissue
4 | 1.30 % Injected Dose (ID)/g of Tissue | 13.71 % Injected Dose (ID)/g of Tissue | 10.73 % Injected Dose (ID)/g of Tissue |  |  |  | 0.22 % Injected Dose (ID)/g of Tissue | 1.18 % Injected Dose (ID)/g of Tissue | 23.46 % Injected Dose (ID)/g of Tissue | considerably lower | considerably less | extended retardation | more stable | 0.82 % Injected Dose (ID)/g of Tissue | 5.81 % Injected Dose (ID)/g of Tissue | 21.67 % Injected Dose (ID)/g of Tissue | CCN(CC)CCNC(=O)c1cc(I)c(NC(=O)c2ccc(Cl)cc2)cc1OC [BA93] | 
5 | 1.21 % Injected Dose (ID)/g of Tissue | 15.49 % Injected Dose (ID)/g of Tissue | 25.51 % Injected Dose (ID)/g of Tissue |  |  |  | 0.07 % Injected Dose (ID)/g of Tissue | 0.76 % Injected Dose (ID)/g of Tissue | 31.66 % Injected Dose (ID)/g of Tissue | considerably lower | considerably less | extended retardation | more stable | 0.70 % Injected Dose (ID)/g of Tissue | 4.64 % Injected Dose (ID)/g of Tissue | 28.10 % Injected Dose (ID)/g of Tissue | CCN(CC)CCNC(=O)c1cc(I)c(NC(=O)c2ccc(F)cc2)cc1OC [BA100] | 
